Test results: US6355634B1, “Aromatic compounds” (Bayer Aktiengesellschaft, priority 1990, dated 2002)

Columns and labels:
Format in all cases: in vivo
[1] = tested on: Plasmopara viticola; assay: Plasmopara viticola (protective action) on grapevine seedlings; conditions: 144 h, 160 ppm spray, grapevine cv. Riesling x Sylvaner, day 6 after infection, read-out: action (leaf area infected with Plasmopara viticola as a percentage compared with the infected, untreated control)
Description: Plasmopara viticola (Protective Action)
2 grapevine seedlings cv. Riesling×Sylvaner, each in the 4-5 leaf stage, are sprayed thoroughly from all sides with a spray mixture prepared with a wettable powder of the active substance (with 160 ppm of active ingredient) and subsequently cultured further in a controlled-environment cabinet at 17° C., 70-80% relative atmospheric humidity and with a photoperiod of 16 hours. After 6 days, the test plants are infected by spraying the undersides of the leaves with zoosporangia of Plasmopara viticola, suspended in distilled water (approx. 300,000 sporangia/ml). The grapevine plants are then incubated as follows: 1 day at 22° C. and under dew-point conditions in the dark and subsequently 4 days in the greenhouse. To induce fructification of Plasmopara viticola, the grapevines are transferred to a controlled-environment cabinet with dew-point conditions at 22° C. on day 5 after the infection.
The tests are carried out in each case on day 6 after the infection by determining the leaf area infected with Plasmopara viticola as a percentage compared with the infected, untreated control.

[2] = tested on: Venturia inaequalis; assay: Venturia inaequalis (curative action) on apple seedlings; conditions: 50 ppm spray, apple cv. Golden Delicious, evaluated 9-10 days after treatment, read-out: action (leaf area covered in Venturia inaequalis as a percentage compared with the infected control)
Description: Venturia inaequalis (Curative Action)
Two apple seedlings cv. “Golden Delicious” are sprayed with a conidia suspension of Venturia inaequalis and subsequently incubated at 18° C. and under dew-point conditions. After 24 hours, the plants are sprayed thoroughly from all sides with a spray mixture prepared with a wettable powder of the active substance (with 50 ppm of active ingredient). The treated apple seedlings are subsequently cultured further in the greenhouse. 9-10 days after the treatment, the test is evaluated by determining the leaf area covered in Venturia inaequalis as a percentage compared with the infected control.

[3] = tested on: Cercospora arachidicola; assay: Action against Cercospora arachidicola on peanut plants (curative action); conditions: Mycosphaerella arachidis, 288 h, 160 ppm spray, peanut cv. Tamnut, evaluated 12 days after treatment, read-out: action (leaf area infected with Cercospora arachidicola as a percentage compared with the infected control)
Description: Action Against Cercospora arachidicola on Peanut Plants (Curative Action)
Two peanut plants cv. “Tamnut” in the 4-leaf stage are sprayed with a conidia suspension of Cercospora arachidicola (approx. 200,000 conidia/ml) and subsequently incubated at 25-26° C. and under dew-point conditions. After two days, the plants are sprayed thoroughly from all sides with a spray mixture prepared with a wettable powder of the active substance (with 160 ppm of active ingredient). The treated plants are subsequently incubated in a controlled-environment cabinet under the following conditions: 25-27° C. and 80% atmospheric humidity during the day, 20° C. and dew-point conditions during the night; the photoperiod in each case is 16 hours. 12 days after the treatment, the test is evaluated by determining the leaf area infected with Cercospora arachidicola as a percentage compared with the infected control.

[4] = tested on: Erysiphe graminis; assay: Erysiphe graminis (protective action) on wheat seedlings; conditions: Blumeria graminis, 168 h, 160 ppm spray, wheat cv. Lita, evaluated 7 days after infection, read-out: action (leaf area covered in Erysiphe graminis as a percentage compared with the infected control)
Description: Erysiphe graminis (Protective Action)
30-40 wheat seedlings cv. “Lita” in the 1-leaf stage (distributed to two pots of ø7 cm) are sprayed thoroughly with a spray mixture prepared with a wettable powder of the active substance (with 160 ppm of active ingredient) and then cultured further in the greenhouse. One day after the treatment, the plants are dusted with conidia of Erysiphe graminis. The test is evaluated 7 days after the infection by determining the size of the leaf area covered in Erysiphe graminis as a percentage compared with the infected control.
Untreated, but infected control plants show a level of infection with Erysiphe of 100%.

[5] = tested on: Alternaria brassicae; assay: Alternaria brassicae (protective action) on cabbage seedlings; conditions: 50 ppm spray, cabbage cv. Vorbote, evaluated 2-5 days after infection, read-out: action (leaf area infected with Alternaria brassicae as a percentage compared with the infected, untreated control)
Description: Alternaria brassicae (Protective Action)
4 cabbage seedlings, cv. “Vorbote”, in the 6-leaf stage, distributed to 2 pots, are sprayed thoroughly with a spray mixture prepared with a wettable powder of the active substance (with 50 ppm of active ingredient) and subsequently cultured further in a controlled-environment cabinet at 19° C. and with 16 hours illumination per day. Two days after the treatment, the plants are infected by spraying with an aqueous conidia suspension (approx. 30,000 conidia/ml). The cabbage plants are then incubated at 24-26° C., under dew-point conditions and with a photoperiod of 16 hours. The test is evaluated 2-5 days after the infection by determining the leaf area infected with Alternaria brassicae as a percentage compared with the infected, untreated control.

Row | SMILES | pest or weed control at 50 ppm [2] [%] | pest or weed control at 160 ppm [4] [%] | further results
1 | CO/N=C(\C(=O)OC)c1ccccc1CON=C(C)c1ccc(OC)c([N+](=O)[O-])c1 [Compound 82] | > 75 | – | pest or weed control at 160 ppm [1]: > 75%
2 | COCc1cc(C(C)=NOCc2ccccc2/C(=N/OC)C(=O)OC)ccc1OC [Compound 83] | > 75 | – | pest or weed control at 160 ppm [3]: > 75%
3 | CCOc1cc(C(C)=NOCc2ccccc2/C(=N/OC)C(=O)OC)ccc1OC [Compound 85] | > 75 | – | –
4 | CO/N=C(\C(=O)OC)c1ccccc1CON=C(c1ccc(F)cc1)C1CC1 [Compound 89] | – | > 75 | –
5 | CO/N=C(\C(=O)OC)c1ccccc1CON=C(C)c1cccc(OCC#N)c1 [Compound 92] | – | – | pest or weed control at 50 ppm [5]: > 75%
6 | CO/N=C(\C(=O)OC)c1ccccc1CON=CC(=O)c1cccs1 [Compound 105] | > 75 | > 75 | pest or weed control at 50 ppm [5]: > 75%
7 | CO/N=C(\C(=O)OC)c1ccccc1CON=C(C)c1ccc(OC(F)(F)C(F)(F)F)cc1 [Compound 106] | > 75 | – | –
8 | CO/N=C(\C(=O)OC)c1ccccc1CON=C(C)c1ccc2cc(OC)ccc2c1 [Compound 119] | – | > 75 | –
9 | CO/N=C(\C(=O)OC)c1ccccc1CON=C(SC)c1ccccc1 [Compound 124] | > 75 | – | pest or weed control at 50 ppm [5]: > 75%
10 | CO/N=C(\C(=O)OC)c1ccccc1CON=C(SC)c1ccc(Cl)cc1 [Compound 125] | – | – | pest or weed control at 160 ppm [1]: > 75%
11 | CO/N=C(\C(=O)OC)c1ccccc1CON=C(SC)c1cccc(C(F)(F)F)c1 [Compound 126] | – | > 75 | –
12 | CO/N=C(\C(=O)OC)c1ccccc1CON=C(OC)c1ccc(Cl)cc1 [Compound 127] | – | > 75 | –
13 | CO/N=C(\C(=O)OC)c1ccccc1CON=C(C)C(=O)c1cccc(Br)c1 [Compound 129] | – | – | pest or weed control at 160 ppm [3]: > 75%; pest or weed control at 160 ppm [1]: > 75%
14 | CO/N=C(\C(=O)OC)c1ccccc1CON=C(C)C(=O)c1cccc([N+](=O)[O-])c1 [Compound 130] | – | – | pest or weed control at 160 ppm [3]: > 75%; pest or weed control at 50 ppm [5]: > 75%
15 | CO/N=C(\C(=O)OC)c1ccccc1CON=C(C)c1ccccc1 [Compound 134] | > 75 | – | –
16 | CO/N=C(\C(=O)OC)c1ccccc1CON=C(C)c1cc(Cl)cc(Cl)c1 [Compound 136] | – | – | pest or weed control at 50 ppm [5]: > 75%
17 | CO/N=C(\C(=O)OC)c1ccccc1CON=C(C)c1cc(C)ccc1F [Compound 137] | – | > 75 | –
18 | CO/N=C(\C(=O)OC)c1ccccc1CON=C(c1cccc(Cl)c1)C(F)(F)F [Compound 141] | – | > 75 | –
19 | CO/N=C(\C(=O)OC)c1ccccc1CON=C(c1ccc(Cl)cc1)C(F)(F)F [Compound 142] | > 75 | – | –
20 | CO/N=C(\C(=O)OC)c1ccccc1CON=C(c1ccc2ccccc2c1)C(F)(F)F [Compound 143] | – | – | pest or weed control at 50 ppm [5]: > 75%
21 | CO/N=C(\C(=O)OC)c1ccccc1CON=C(c1cccc(Cl)c1)C1CC1 [Compound 145] | – | – | pest or weed control at 160 ppm [3]: > 75%
22 | CO/N=C(\C(=O)OC)c1ccccc1CON=C(c1cccc(Br)c1)C1CC1 [Compound 147] | > 75 | – | pest or weed control at 160 ppm [1]: > 75%
23 | CO/N=C(\C(=O)OC)c1ccccc1CON=C(c1ccc(Oc2ccccc2)cc1)C1CC1 [Compound 149] | – | > 75 | –
24 | CO/N=C(\C(=O)OC)c1ccccc1CON=C(c1ccc2ccccc2c1)C1CC1 [Compound 150] | – | – | pest or weed control at 160 ppm [1]: > 75%; pest or weed control at 50 ppm [5]: > 75%
